Source: PubChem BioAssay AID434934 (The Scripps Research Institute Molecular Screening Center, 2010)
pIC50: −log10 of the molar value. Values joined by “and” are separate entries in the source; they are usually repeats but may differ in a detail not shown here. Equal values may be shown once. Active and inactive are the calls of the source.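 The calls were made as follows: active = IC50 at or below 10 µM; inactive = IC50 above 10 µM.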

Each compound was assayed on NIH 3T3 viability, CellTiter-Glo ATP luminescence (assay: 3T3 cell viability loss – luminescence, dose response, cytotoxicity control for TPT1 inhibitor project, late-stage follow-up (AID 434934)).

SMILES	IC50	pIC50
NS(=O)(=O)c1cc(C(=O)NC2CCSc3ccccc32)ccc1Cl (stereo not given)	> 79.4 µM (inactive)	
O=c1oc2c(O)c(O)cc3c(=O)oc4c(O)c(O)cc1c4c23	> 26.5 µM (inactive)	
Cc1cc(C)n(Cc2ccc(C(=O)NN=Cc3ccc(-c4ccc([N+](=O)[O-])cc4)o3)o2)n1	> 79.4 µM (inactive)	
CC1=C(C#N)C(=O)N(C2CCS(=O)(=O)C2)C(=O)/C1=C\c1ccco1 (stereo not given)	20.4 µM (inactive)	
OC(Cn1cncn1)(Cn1cncn1)c1ccc(F)cc1F	> 26.5 µM (inactive)	
Cc1[nH]n(-c2ccc(S(=O)(=O)O)cc2)c(=O)c1N[N-]c1ccc(C2=CC(=O)/C(=N\[N-]c3ccc4c(S(=O)(=O)O)cc(S(=O)(=O)O)c(N)c4c3O)C=C2)cc1O.[Cu+].[Cu+]		5.74
Cc1ccccc1N1C(=O)/C(=C/c2ccco2)C(=O)NC1=S	46.1 µM (inactive) and 34.3 µM (inactive)	
NC(=O)c1cc[n+](CC2=C(C(=O)O)N3C(=O)[C@@H](NC(=O)C(c4ccccc4)S(=O)(=O)O)[C@H]3SC2)cc1 (stereo not given in full)	> 79.4 µM (inactive)	
COc1ccc(OC)c(N2C(=O)/C(=C/c3ccco3)C(=O)NC2=S)c1	73.9 µM (inactive)	
Cc1ccc(N2C(=O)NC(=O)/C(=C\c3ccc([N+](=O)[O-])o3)C2=O)cc1	23.2 µM (inactive)	
